Here are results for one molecule from EPA's ToxValDB 9.5 (doi:10.2903/j.efsa.2013.3212).

Series [1] relates to Anas platyrhynchos. The conditions noted are these: for LD50: oral, mortality.
The test system of series [2] is Apis mellifera. The conditions noted are these: acute; duration: 48 hours; oral; unspecified; mortality.
The test system of series [3] is Canidae. The conditions noted are these: chronic; duration: 1 years; oral; Dog Other; hematological.
Series [4] deals with Colinus virginianus. The conditions noted are these: reproduction developmental; reproduction.
Series [5] concerns Coturnix japonica. The conditions noted are these: acute, oral, mortality.
Series [6] deals with Daphnia magna. The conditions noted are these: chronic/long-term; duration: 21 days; reproduction.
The subject of series [7] is Oncorhynchus mykiss. The conditions noted are these: acute; duration: 96 hours; mortality.
Series [8] concerns Plant. The conditions noted are these: not reported; no effects.
The test system of series [9] is Pleurozium sp. The conditions noted are these: acute; duration: 72 hours; biomass.
Series [10] deals with Rattus norvegicus. The conditions noted are these: for NOAEL: hematological.
The test system of series [11] is Tagia sp. The conditions noted are these: acute; duration: 14 days; mortality.
Series [12] deals with Typhlodromus pyri. The series can be described thus: LR50; higher = less toxic.

Converted amounts (≈) assume the structure as drawn.

Take `CCCCCCCCCCCCC1=C(OC(C)=O)C(=O)c2ccccc2C1=O` [Acequinocyl]: the LD50 was above 1940 mg/kg in series [1] (acute, unspecified); above 1340 mg/kg in series [1] (short-term, feed); above 100 µg/piece in series [2]; above 847 mg/kg in series [5] (diet); above 1940 mg/kg in series [5]; above 4860 mg/kg in [10] (acute, oral, mortality). In addition, the NOEL was 7.48 mg/kg in [1] (reproductive, reproduction) and 217 mg/kg-day in series [4]. Further, the no observed adverse effect level (NOAEL) in [3] turned out to be 5 mg/kg-day; in [10] (chronic, duration: 2 years) it was 2.3 mg/kg-day; in series [10] (repeat dose other, oral) it was 8 mg/kg-day; in series [10] (reproduction developmental), 6.9 mg/kg-day. In addition, the NOEC in [6] amounted to 0.00098 mg/L. In addition, the LC50 was 65 µg/mL (≈ 169 µM) in series [7], 0.93 µg/mL (≈ 2.42 µM) in series [9] and above 1000 mg/kg in series [11]. The molecule further displayed an LEL in series [8] of 5000 g/ha. Also, the LR50 in series [12] (acute, duration: 7 days, mortality) came to 8.52 g/ha; in series [12] (not reported, reproduction), 10 g/ha.

The NOAEL is the highest dose or exposure tested at which no adverse effect was seen.
